Measurements from US20140288077A1, “SUBSTITUTED 4-PHENOXYPHENOL ANALOGS AS MODULATORS OF PROLIFERATING CELL NUCLEAR ANTIGEN ACTIVITY” (ST. JUDE CHILDREN'S RESEARCH HOSPITAL, priority 2011, published 2014).
pIC50: −log10 of the molar value. No end group written: not given here.

Target: T1, human PCNA recombinant protein (Homo sapiens, UniProt P12004)
T1 construct: The full length human PCNA; made in house; host or cells: Escherichia coli BL21(DE3)
Experiment: Fluorescent polarization assay: competition with 5-FAM-labeled PL peptide for PCNA
Type: binding
Details: not given
Excerpt: To determine the binding of the disclosed compounds to the human PCNA recombinant protein, a fluorescence polarization assay was employed. The assay is based on competition between a fluorescent tracer and increasing amounts of competing compound, i.e. a disclosed compound, determined as fluorescence polarization intensity (mP). The fluorescent tracer was 5-carboxyfluorescein (5-FAM) labeled PL peptide (“FAM-PL”). […] PCNA was a recombinant protein purified using standard methods known to one skilled in the art using an expression construct obtained from Dr. Toshiki Tsurimoto, Kyusyu University, Japan.
The volumes of PCNA and FAM-PL were adjusted to ensure that the final concentration of PCNA was 200 nM and FAM-PL was 10 nM. Assays were carried out in 384 well plates in a total volume of about 20-30 μL. […] Fluorescence measurements were made immediately after dilution in the assay plate. […] FP values (P) were calculated in millipolarization units (mP),
where I∥ and I⊥ are the emission intensities recorded, respectively, in the parallel and perpendicular directions relative to the plane of excitation polarization, after background intensity correction. G-factor values (G) for the fluorescein spectral window were measured using 1 nM fluorescein.
Alternatively, the fluorescent polarization assay can be carried out as described in the following. […] Briefly, 20 μl of the assay solution was transferred into each well of a black 384-well plate using Wellmate (Matrix). […] The negative control in each plate was DMSO, whereas the positive control was unlabeled PL-peptide as a self-competitor. […] FP values were calculated in millipolarization units. All data processing was performed using in-house programs in the Pipeline Pilot (Accelrys, version 7.0.1). The quality of the primary screen was assessed by Z-prime and other screening quality metrics.

T1 sequence (P12004 whole entry): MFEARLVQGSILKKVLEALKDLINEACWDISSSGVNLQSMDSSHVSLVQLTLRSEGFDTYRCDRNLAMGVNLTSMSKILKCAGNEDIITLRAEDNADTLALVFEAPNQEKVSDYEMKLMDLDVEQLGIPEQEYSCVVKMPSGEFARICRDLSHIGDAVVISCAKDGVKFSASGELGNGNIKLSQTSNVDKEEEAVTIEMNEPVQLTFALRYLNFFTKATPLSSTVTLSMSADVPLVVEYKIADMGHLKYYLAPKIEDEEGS

`NCCc1cc(I)c(Oc2ccc(O)cc2)c(I)c1` [MLAG-087, 4-(4-(2-aminoethyl)-2,6-diiodophenoxy)phenol] was tested. Which pIC50 did it give?
Its pIC50 is 6.05.

Same assay, conditions: Table 2; inhibition of FAM-PL peptide binding to PCNA; read-out: IC50

How did the pIC50 turn out when `O=C1CN(C(=O)CCc2cc(I)c(Oc3ccc(O)cc3)c(I)c2)CCN1` [MLAE-034, 4-(3-(4-(4-hydroxyphenoxy)-3,5-diiodophenyl)propanoyl)piperazin-2-one] was run?
Its pIC50 is under 4.30.

`N[C@H](CO)Cc1cc(I)c(Oc2ccc(O)c(I)c2)c(I)c1` [MLAG-083, (S)-4-(4-(2-amino-3-hydroxypropyl)-2,6-diiodophenoxy)-2-iodophenol] was tested. Which pIC50 did it give?
Its pIC50 is 6.22.

How did the pIC50 turn out when `COc1ccc(Oc2c(I)cc(CCC(=O)NS(C)(=O)=O)cc2I)cc1` [MLAE-036, 3-(3,5-diiodo-4-(4-methoxyphenoxy)phenyl)-N-(methylsulfonyl)propanamide] was run?
Its pIC50 is under 4.30.

`CCCCCCNC(=O)NC[C@@H](N)Cc1cc(I)c(Oc2ccc(O)cc2)c(I)c1` [MLAF-086, (S)-1-(2-amino-3-(4-(4-hydroxyphenoxy)-3,5-diiodophenyl)propyl)-3-hexylurea] was tested. Which pIC50 did it give?
The pIC50 was 5.89.

How did the pIC50 turn out when `CS(=O)(=O)NC(=O)CCc1cc(I)c(Oc2ccc(O)c(C(=O)Nc3ccccc3)c2)c(I)c1` [MLAF-012, 5-(2,6-diiodo-4-(3-(methylsulfonamido)-3-oxopropyl)phenoxy)-2-hydroxy-N-phenylbenzamide] was run?
The pIC50 was under 4.30.

`O=C(Cc1cc(I)c(Oc2ccc(O)c(I)c2)c(I)c1)NCCc1ccccc1` [MLAE-029-3, 2-(4-(4-hydroxy-3-iodophenoxy)-3,5-diiodophenyl)-N-phenethylacetamide] was tested. Which pIC50 did it give?
The pIC50 was under 4.30.

`Cc1cc(Oc2c(I)cc(C[C@H](N)CO)cc2I)ccc1O` [MLAG-093, (S)-4-(4-(2-amino-3-hydroxypropyl)-2,6-diiodophenoxy)-2-methylphenol] was tested. Which pIC50 did it give?
The pIC50 was 5.74.

How did the pIC50 turn out when `COCCNC(=O)CCc1cc(I)c(Oc2ccc(O)cc2)c(I)c1` [MLAE-051-1, 3-(4-(4-Hydroxyphenoxy)-3,5-diiodophenyl)-N-(2-methoxyethyl)propanamide] was run?
Its pIC50 is 5.31.

`O=C(Cc1cc(I)c(Oc2ccc(O)c(I)c2)c(I)c1)NCc1ccccc1` [MLAE-029-4, N-Benzyl-2-(4-(4-hydroxy-3-iodophenoxy)-3,5-diiodophenyl)acetamide] was tested. Which pIC50 did it give?
Its pIC50 is under 4.30.

With `CCS(=O)(=O)N1CCN(C(=O)CCc2cc(I)c(Oc3ccc(O)cc3)c(I)c2)CC1` [MLAE-051-3, 1-(4-(Ethylsulfonyl)piperazin-1-Yl)-3-(4-(4-hydroxyphenoxy)-3,5-diiodophenyl)propan-1-one] as the compound, how does the pIC50 read?
Its pIC50 is 5.57.

With `CNC(=O)Cc1cc(I)c(Oc2ccc(O)cc2)c(I)c1` [MLAG-066-1, 2-(4-(4-hydroxyphenoxy)-3,5-diiodophenyl)-N-Methylacetamide] as the compound, how does the pIC50 read?
Its pIC50 is 5.08.

How did the pIC50 turn out when `O=C(Cc1cc(I)c(Oc2ccc(O)cc2)c(I)c1)N1CCOCC1` [MLAE-047, 2-(4-(4-hydroxyphenoxy)-3,5-diiodophenyl)-1-morpholinoethanone] was run?
Its pIC50 is 5.20.

With `O=C(O)CCc1ccc(I)c(Oc2ccc(O)cc2)c1I` [MLAF-050, 3-(3-(4-Hydroxyphenoxy)-2,4-diiodophenyl)propanoic acid] as the compound, how does the pIC50 read?
Its pIC50 is 4.72.

`CS(=O)(=O)NC(=O)Cc1cc(I)c(Oc2ccc(O)cc2)c(I)c1` [MLAE-049, 2-(4-(4-Hydroxyphenoxy)-3,5-diiodophenyl)-N-(methylsulfonyl)acetamide] was tested. Which pIC50 did it give?
The pIC50 was 5.04.

With `COCCCNC(=O)CCc1cc(I)c(Oc2ccc(O)cc2)c(I)c1` [MLAE-054-4, 3-(4-(4-Hydroxyphenoxy)-3,5-diiodophenyl)-N-(3-methoxypropyl)propanamide] as the compound, how does the pIC50 read?
The pIC50 was 5.28.

With `O=C(Cc1cc(I)c(Oc2ccc(O)c(I)c2)c(I)c1)NC1CCCCC1` [MLAE-029-2, N-Cyclohexyl-2-(4-(4-hydroxy-3-iodophenoxy)-3,5-diiodophenyl)acetamide] as the compound, how does the pIC50 read?
Its pIC50 is under 4.30.

How did the pIC50 turn out when `N[C@H](CNC(=O)NCc1ccccc1)Cc1cc(I)c(Oc2ccc(O)cc2)c(I)c1` [MLAF-085, (S)-1-(2-amino-3-(4-(4-hydroxyphenoxy)-3,5-diiodophenyl)propyl)-3-benzylurea] was run?
The pIC50 was 6.00.

How did the pIC50 turn out when `CNC(=O)CCc1cc(I)c(Oc2ccc(OC)cc2)c(I)c1` [MLAE-040, 3-(3,5-Diiodo-4-(4-methoxyphenoxy)phenyl)-N-methylpropanamide] was run?
Its pIC50 is 4.77.

`CCCOCCNC(=O)CCc1cc(I)c(Oc2ccc(O)cc2)c(I)c1` [MLAE-054-3, 3-(4-(4-Hydroxyphenoxy)-3,5-diiodophenyl)-N-(2-propoxyethyl)propanamide] was tested. Which pIC50 did it give?
Its pIC50 is 5.08.

How did the pIC50 turn out when `N[C@H](CNC(=O)CO)Cc1cc(I)c(Oc2ccc(O)cc2)c(I)c1` [MLAF-083, (S)—N-(2-amino-3-(4-(4-hydroxyphenoxy)-3,5-diiodophenyl)propyl)-2-hydroxyacetamide] was run?
The pIC50 was 5.85.

`COc1ccc(NC(=O)Cc2cc(I)c(Oc3ccc(O)c(I)c3)c(I)c2)cc1` [MLAE-029-7, 2-(4-(4-Hydroxy-3-iodophenoxy)-3,5-diiodophenyl)-N-(4-methoxyphenyl)acetamide] was tested. Which pIC50 did it give?
Its pIC50 is under 4.30.

How did the pIC50 turn out when `CCNC(=O)Cc1cc(I)c(Oc2ccc(O)cc2)c(I)c1` [MLAG-066-3, N-ethyl-2-(4-(4-hydroxyphenoxy)-3,5-diiodophenyl)acetamide] was run?
The pIC50 was 5.18.

How did the pIC50 turn out when `O=C(CCc1cc(I)c(Oc2ccc(O)c(C(=O)NCc3ccccc3)c2)c(I)c1)NCCO` [MLAF-008, N-Benzyl-2-hydroxy-5-(4-(3-((2-hydroxyethyl)amino)-3-oxopropyl)-2,6-diiodophenoxy)benzamide] was run?
Its pIC50 is 6.40.

With `CS(=O)(=O)NC(=O)CCc1cc(I)c(Oc2ccc(O)c(C(=O)NCc3ccccc3)c2)c(I)c1` [MLAF-013, N-Benzyl-5-(2,6-diiodo-4-(3-(methylsulfonamido)-3-oxopropyl)phenoxy)-2-hydroxybenzamide] as the compound, how does the pIC50 read?
The pIC50 was 5.85.

How did the pIC50 turn out when `O=C1NC[C@H](Cc2cc(I)c(Oc3ccc(O)cc3)c(I)c2)N1` [MLAG-060, (S)-4-(4-(4-hydroxyphenoxy)-3,5-diiodobenzyl)imidazolidin-2-one] was run?
Its pIC50 is 5.24.

`O=C(CCc1cc(I)c(Oc2ccc(O)cc2)c(I)c1)N1CCCCC1` [MLAE-041, 3-(4-(4-hydroxyphenoxy)-3,5-diiodophenyl)-1-(piperidin-1-yl)propan-1-one] was tested. Which pIC50 did it give?
The pIC50 was 5.62.

`O=C(CCc1cc(I)c(Oc2ccc(O)c(C(=O)Nc3ccccc3)c2)c(I)c1)NCCO` [MLAF-007, 2-Hydroxy-5-(4-(3-((2-hydroxyethyl)amino)-3-oxopropyl)-2,6-diiodophenoxy)-N-phenylbenzamide] was tested. Which pIC50 did it give?
The pIC50 was 6.40.

`O=S(=O)(N[C@H](CO)Cc1cc(I)c(Oc2ccc(O)cc2)c(I)c1)c1ccc(O)cc1` [MLAE-060, (S)-4-Hydroxy-N-(1-hydroxy-3-(4-(4-hydroxyphenoxy)-3,5-diiodophenyl)propan-2-yl)benzenesulfonamide] was tested. Which pIC50 did it give?
The pIC50 was 4.49.

With `CCCCCNC(=O)Cc1cc(I)c(Oc2ccc(O)c(I)c2)c(I)c1` [MLAE-029-9, 2-(4-(4-Hydroxy-3-iodophenoxy)-3,5-diiodophenyl)-N-pentylacetamide] as the compound, how does the pIC50 read?
Its pIC50 is under 4.30.

How did the pIC50 turn out when `O=C1CN(C(=O)Cc2cc(I)c(Oc3ccc(O)cc3)c(I)c2)CCN1` [MLAE-048, 4-(2-(4-(4-Hydroxyphenoxy)-3,5-diiodophenyl)acetyl)piperazin-2-one] was run?
Its pIC50 is 5.04.

`Cc1noc(C)c1S(=O)(=O)N[C@H](CO)Cc1cc(I)c(Oc2ccc(O)cc2)c(I)c1` [MLAE-061, (S)—N-(1-Hydroxy-3-(4-(4-hydroxyphenoxy)-3,5-diiodophenyl)propan-2-yl)-3,5-dimethylisoxazole-4-sulfonamide] was tested. Which pIC50 did it give?
Its pIC50 is 4.80.

`COc1ccc(Oc2c(I)cc(CCC(=O)N3CCCCC3)cc2I)cc1` [MLAE-039, 3-(3,5-Diiodo-4-(4-methoxyphenoxy)phenyl)-1-(piperidin-1-yl)propan-1-one] was tested. Which pIC50 did it give?
The pIC50 was 5.02.

How did the pIC50 turn out when `CN(C)C(=O)Cc1cc(I)c(Oc2ccc(O)cc2)c(I)c1` [MLAG-066-2, 2-(4-(4-hydroxyphenoxy)-3,5-diiodophenyl)-N,N-dimethylacetamide] was run?
Its pIC50 is 5.12.

How did the pIC50 turn out when `O=S(=O)(N[C@H](CO)Cc1cc(I)c(Oc2ccc(O)cc2)c(I)c1)c1ccccc1` [MLAE-058-2, (S)—N-(1-Hydroxy-3-(4-(4-hydroxyphenoxy)-3,5-diiodophenyl)propan-2-yl)benzenesulfonamide] was run?
The pIC50 was 5.22.

`O=C(CCc1ccc(I)c(Oc2ccc(O)cc2)c1I)NCCO` [MLAF-051] was tested. Which pIC50 did it give?
Its pIC50 is 5.02.

How did the pIC50 turn out when `COc1ccc(Oc2c(I)cc(CC(=O)N3CCNC(=O)C3)cc2I)cc1` [MLAE-045, 4-(2-(3,5-Diiodo-4-(4-methoxyphenoxy)phenyl)acetyl)piperazin-2-one] was run?
Its pIC50 is 5.68.

With `Cc1cc(CCC(=O)O)cc(C)c1Oc1ccc(O)cc1` [NF021111, 3-(4-(4-hydroxyphenoxy)-3,5-dimethylphenyl)propanoic acid] as the compound, how does the pIC50 read?
The pIC50 was under 4.30.

`COc1ccc(S(=O)(=O)N[C@H](CO)Cc2cc(I)c(Oc3ccc(O)cc3)c(I)c2)cc1` [MLAE-058-3, (S)—N-(1-Hydroxy-3-(4-(4-hydroxyphenoxy)-3,5-diiodophenyl)propan-2-yl)-4-methoxybenzenesulfonamide] was tested. Which pIC50 did it give?
The pIC50 was 5.01.

How did the pIC50 turn out when `NC[C@@H](N)Cc1cc(I)c(Oc2ccc(O)cc2)c(I)c1` [SWUA_017, (S)-4-(4-(2,3-diaminopropyl)-2,6-diiodophenoxy)phenol] was run?
Its pIC50 is 5.60.

Same assay, conditions: unlabeled PL-peptide against tagged PL-peptide; data not shown; read-out: IC50 in self-competition

“SAVLQKKITDYFHPKK [PL peptide, reference compound]” was tested. Which pIC50 did it give?
The pIC50 was about 7.00.
